Read-outs that look alike come from different tables or passages of the source.
What was measured:
Assay in all cases: Eurofins kinase selectivity profile against 380 other human recombinant kinases (Table S2)
Assay type in all cases: biochemical
[1] = molecular target: T1, 380 human recombinant protein kinases (Homo sapiens, UniProt Q9UKI8); conditions: TLK1(h), read-out: Inhibition rate (%)
T1 construct: purchased Eurofins (Celle Lévescault)
T1 sequence (Q9UKI8 1-766): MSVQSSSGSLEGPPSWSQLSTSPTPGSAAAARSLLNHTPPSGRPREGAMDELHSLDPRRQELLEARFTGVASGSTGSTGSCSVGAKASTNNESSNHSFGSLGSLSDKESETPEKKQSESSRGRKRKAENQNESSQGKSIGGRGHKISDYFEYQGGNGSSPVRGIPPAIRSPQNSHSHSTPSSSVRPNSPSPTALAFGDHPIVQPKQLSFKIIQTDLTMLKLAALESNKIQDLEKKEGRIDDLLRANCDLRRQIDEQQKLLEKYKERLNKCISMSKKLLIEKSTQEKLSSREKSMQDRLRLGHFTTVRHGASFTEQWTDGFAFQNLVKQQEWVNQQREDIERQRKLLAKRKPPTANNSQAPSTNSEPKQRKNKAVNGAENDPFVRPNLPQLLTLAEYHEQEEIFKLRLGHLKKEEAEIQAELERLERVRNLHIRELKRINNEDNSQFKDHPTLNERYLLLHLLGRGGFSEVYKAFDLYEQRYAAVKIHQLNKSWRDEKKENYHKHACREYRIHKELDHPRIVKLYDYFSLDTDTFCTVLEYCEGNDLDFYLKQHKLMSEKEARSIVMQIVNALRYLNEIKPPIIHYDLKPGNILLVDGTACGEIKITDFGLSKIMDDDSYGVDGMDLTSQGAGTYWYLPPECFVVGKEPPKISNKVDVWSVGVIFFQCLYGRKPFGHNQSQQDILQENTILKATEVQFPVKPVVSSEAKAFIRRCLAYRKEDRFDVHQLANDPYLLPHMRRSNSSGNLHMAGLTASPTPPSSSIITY
Outline: (§1)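 Selectivity panel of 380 human recombinant protein kinases, screened by Eurofins at a range of concentrations.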

[2] = molecular target: T2, 380 human recombinant protein kinases (Homo sapiens, UniProt P04629); conditions: TrkA(h), read-out: Inhibition rate (%)
T2 construct: purchased Eurofins (Celle Lévescault)
T2 sequence (P04629 33-796): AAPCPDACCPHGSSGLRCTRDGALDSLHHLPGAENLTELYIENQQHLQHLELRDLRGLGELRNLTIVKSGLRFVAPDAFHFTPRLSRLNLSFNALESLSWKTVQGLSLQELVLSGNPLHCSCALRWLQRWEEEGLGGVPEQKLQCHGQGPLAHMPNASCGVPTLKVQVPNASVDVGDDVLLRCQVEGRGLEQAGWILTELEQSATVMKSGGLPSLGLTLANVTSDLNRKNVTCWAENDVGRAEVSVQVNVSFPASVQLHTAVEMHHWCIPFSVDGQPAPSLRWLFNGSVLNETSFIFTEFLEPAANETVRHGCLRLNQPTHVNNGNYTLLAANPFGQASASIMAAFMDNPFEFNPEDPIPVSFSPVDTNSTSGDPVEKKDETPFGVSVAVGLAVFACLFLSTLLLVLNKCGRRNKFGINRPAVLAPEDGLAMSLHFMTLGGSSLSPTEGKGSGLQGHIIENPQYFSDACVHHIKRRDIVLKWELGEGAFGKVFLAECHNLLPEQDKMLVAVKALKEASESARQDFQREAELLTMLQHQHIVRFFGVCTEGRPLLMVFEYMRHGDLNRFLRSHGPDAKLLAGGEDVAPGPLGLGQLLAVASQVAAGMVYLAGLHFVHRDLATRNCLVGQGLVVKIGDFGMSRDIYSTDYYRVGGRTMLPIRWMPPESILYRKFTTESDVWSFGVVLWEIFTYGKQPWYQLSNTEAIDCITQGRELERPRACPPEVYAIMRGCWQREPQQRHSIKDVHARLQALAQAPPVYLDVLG
Outline: as §1

[3] = molecular target: T3, 380 human recombinant protein kinases (Homo sapiens, UniProt Q86V86); conditions: Pim-3(h), read-out: Inhibition rate
T3 construct: purchased Eurofins (Celle Lévescault)
Outline: as §1

[4] = molecular target: T4, 380 human recombinant protein kinases (Homo sapiens, UniProt P68400); conditions: read-out: Inhibition rate; for inhibition at 0.01 µM: 10 nM; for inhibition at 0.1 µM: 100 nM; for inhibition at 1 µM: 1000 nM
T4 construct: purchased Eurofins (Celle Lévescault)
T4 sequence (P68400 whole entry): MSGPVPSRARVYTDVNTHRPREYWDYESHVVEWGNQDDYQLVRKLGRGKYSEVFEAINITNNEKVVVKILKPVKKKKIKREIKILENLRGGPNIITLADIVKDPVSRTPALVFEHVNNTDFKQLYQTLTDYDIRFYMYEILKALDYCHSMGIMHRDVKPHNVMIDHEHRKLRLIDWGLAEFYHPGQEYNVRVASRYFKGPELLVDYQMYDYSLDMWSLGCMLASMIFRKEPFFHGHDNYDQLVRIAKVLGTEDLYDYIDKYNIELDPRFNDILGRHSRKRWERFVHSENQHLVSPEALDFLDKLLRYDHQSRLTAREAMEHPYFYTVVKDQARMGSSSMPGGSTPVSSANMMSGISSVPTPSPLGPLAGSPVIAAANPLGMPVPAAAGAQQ
Outline: as §1

[5] = molecular target: T5, 380 human recombinant protein kinases (Homo sapiens, UniProt O95819); conditions: MAP4K4(h), read-out: Inhibition rate
T5 construct: purchased Eurofins (Celle Lévescault)
T5 sequence (O95819 whole entry): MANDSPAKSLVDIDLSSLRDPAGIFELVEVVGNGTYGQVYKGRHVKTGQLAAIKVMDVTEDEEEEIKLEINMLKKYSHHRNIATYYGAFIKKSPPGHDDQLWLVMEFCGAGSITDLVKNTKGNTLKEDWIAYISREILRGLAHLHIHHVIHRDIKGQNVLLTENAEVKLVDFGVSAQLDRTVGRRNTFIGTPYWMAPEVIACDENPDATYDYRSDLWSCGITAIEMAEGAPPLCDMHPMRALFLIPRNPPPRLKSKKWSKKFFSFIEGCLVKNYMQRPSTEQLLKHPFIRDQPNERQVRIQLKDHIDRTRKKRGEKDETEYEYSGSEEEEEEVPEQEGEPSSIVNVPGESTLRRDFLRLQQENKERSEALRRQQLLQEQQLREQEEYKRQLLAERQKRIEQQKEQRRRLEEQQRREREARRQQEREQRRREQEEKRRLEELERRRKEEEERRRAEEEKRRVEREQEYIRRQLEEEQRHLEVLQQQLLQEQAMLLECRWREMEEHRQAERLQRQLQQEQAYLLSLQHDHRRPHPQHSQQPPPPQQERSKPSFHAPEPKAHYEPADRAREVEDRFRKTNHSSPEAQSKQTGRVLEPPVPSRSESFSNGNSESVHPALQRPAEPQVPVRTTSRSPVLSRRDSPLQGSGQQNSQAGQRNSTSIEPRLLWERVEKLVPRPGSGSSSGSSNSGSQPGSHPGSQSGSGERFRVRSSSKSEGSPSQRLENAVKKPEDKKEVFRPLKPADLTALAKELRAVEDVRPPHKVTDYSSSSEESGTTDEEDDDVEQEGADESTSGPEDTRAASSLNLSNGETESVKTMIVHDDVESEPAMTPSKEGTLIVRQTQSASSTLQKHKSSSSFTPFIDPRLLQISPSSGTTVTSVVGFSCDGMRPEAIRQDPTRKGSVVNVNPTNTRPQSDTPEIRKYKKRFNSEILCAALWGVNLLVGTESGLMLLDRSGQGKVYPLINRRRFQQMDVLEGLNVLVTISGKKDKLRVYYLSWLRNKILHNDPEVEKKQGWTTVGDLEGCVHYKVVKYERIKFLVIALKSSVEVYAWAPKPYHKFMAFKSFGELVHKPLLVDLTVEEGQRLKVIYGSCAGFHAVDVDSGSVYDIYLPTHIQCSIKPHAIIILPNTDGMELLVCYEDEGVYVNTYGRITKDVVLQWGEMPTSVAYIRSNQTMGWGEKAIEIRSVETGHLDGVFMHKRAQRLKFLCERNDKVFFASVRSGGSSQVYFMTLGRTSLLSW
Outline: as §1

[6] = molecular target: T6, 380 human recombinant protein kinases (Homo sapiens, UniProt Q96L34); conditions: MARK4(h), read-out: Inhibition rate
T6 construct: purchased Eurofins (Celle Lévescault)
T6 sequence (Q96L34 1-752): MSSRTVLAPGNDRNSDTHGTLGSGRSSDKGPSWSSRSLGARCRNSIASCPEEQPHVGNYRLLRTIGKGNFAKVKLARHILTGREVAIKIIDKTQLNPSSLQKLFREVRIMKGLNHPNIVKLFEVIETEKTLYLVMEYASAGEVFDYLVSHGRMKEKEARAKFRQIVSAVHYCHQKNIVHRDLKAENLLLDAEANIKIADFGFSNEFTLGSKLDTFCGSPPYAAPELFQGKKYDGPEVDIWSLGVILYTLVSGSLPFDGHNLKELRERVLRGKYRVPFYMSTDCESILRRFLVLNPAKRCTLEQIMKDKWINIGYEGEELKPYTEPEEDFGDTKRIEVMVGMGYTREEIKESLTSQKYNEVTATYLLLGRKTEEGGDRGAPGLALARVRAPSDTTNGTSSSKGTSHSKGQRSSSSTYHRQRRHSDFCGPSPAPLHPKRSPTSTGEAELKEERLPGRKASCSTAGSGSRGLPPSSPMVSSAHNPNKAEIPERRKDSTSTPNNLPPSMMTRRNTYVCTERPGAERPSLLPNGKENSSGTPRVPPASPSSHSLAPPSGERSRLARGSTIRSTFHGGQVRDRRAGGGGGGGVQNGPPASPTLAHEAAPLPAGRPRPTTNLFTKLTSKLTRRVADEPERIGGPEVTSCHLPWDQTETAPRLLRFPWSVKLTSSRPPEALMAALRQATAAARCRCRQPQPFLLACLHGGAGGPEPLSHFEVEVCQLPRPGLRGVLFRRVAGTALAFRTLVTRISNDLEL
Outline: as §1

[7] = molecular target: T7, 380 human recombinant protein kinases (Homo sapiens, UniProt P42336, E542K); conditions: PI3 Kinase (p110α(E542K)/p85α)(h), read-out: Inhibition rate (%)
T7 construct: purchased Eurofins (Celle Lévescault)
T7 sequence (P42336 whole entry E542K): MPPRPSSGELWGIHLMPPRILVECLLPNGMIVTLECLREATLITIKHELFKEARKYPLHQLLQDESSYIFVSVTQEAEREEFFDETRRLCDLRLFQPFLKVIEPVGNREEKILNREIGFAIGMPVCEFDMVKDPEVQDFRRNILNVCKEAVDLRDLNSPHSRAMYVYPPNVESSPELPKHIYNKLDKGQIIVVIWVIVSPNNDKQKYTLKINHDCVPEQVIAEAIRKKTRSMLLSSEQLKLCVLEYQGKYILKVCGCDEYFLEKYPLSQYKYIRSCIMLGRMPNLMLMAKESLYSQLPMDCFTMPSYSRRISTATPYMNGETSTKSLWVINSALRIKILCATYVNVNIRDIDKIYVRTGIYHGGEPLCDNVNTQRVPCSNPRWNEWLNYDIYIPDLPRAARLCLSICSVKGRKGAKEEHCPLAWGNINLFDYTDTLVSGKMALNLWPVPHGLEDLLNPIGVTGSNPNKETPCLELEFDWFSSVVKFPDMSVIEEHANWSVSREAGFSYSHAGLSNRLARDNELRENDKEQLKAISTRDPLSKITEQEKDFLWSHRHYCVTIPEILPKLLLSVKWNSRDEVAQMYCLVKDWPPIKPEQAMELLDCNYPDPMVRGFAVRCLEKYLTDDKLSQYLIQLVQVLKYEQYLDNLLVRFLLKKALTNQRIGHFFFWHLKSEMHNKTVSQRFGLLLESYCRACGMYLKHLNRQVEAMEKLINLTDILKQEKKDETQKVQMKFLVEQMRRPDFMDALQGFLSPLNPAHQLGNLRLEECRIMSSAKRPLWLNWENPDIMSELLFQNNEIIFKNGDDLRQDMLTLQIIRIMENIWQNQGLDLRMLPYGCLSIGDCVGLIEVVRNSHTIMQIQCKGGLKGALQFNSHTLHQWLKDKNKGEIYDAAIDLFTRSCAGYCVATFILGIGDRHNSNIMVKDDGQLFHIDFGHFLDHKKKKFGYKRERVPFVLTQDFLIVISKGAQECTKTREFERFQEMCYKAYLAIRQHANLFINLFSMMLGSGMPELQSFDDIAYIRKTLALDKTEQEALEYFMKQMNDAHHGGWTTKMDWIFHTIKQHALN
Outline: as §1

[8] = molecular target: T8, 380 human recombinant protein kinases (Homo sapiens, UniProt P00519); conditions: Abl(h), read-out: Inhibition rate
T8 construct: purchased Eurofins (Celle Lévescault)
T8 sequence (P00519 whole entry): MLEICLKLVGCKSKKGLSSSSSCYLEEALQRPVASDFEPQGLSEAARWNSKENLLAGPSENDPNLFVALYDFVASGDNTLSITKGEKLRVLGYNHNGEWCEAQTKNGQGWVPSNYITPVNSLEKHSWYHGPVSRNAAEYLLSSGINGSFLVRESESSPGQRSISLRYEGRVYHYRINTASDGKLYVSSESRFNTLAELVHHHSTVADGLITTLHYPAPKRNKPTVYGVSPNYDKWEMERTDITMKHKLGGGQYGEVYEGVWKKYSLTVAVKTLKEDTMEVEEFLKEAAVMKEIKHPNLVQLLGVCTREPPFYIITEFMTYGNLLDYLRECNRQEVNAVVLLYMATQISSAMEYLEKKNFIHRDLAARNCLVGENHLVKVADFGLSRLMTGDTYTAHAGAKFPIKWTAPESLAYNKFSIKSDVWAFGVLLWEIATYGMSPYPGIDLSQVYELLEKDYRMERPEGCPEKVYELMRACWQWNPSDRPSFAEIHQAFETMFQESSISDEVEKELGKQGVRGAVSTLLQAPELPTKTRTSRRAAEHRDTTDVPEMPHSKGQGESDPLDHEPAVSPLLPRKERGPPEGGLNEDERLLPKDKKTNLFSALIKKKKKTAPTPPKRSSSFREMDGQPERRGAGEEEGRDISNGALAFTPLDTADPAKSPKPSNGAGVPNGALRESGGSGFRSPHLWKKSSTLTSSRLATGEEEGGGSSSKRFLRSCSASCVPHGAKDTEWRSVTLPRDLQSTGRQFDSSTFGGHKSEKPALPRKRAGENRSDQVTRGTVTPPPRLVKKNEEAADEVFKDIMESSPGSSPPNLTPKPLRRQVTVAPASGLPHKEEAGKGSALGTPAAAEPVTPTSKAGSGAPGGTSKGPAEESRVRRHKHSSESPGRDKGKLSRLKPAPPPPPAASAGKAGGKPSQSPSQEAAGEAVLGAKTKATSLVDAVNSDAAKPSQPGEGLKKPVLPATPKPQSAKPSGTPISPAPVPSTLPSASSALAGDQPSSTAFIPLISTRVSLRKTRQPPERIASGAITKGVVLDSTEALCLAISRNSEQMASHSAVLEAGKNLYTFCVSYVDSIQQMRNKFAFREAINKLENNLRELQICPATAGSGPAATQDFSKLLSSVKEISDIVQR
Outline: as §1

## C=CC(=O)Nc1cc(-c2cc(-c3cc4c([nH]3)CCNC4=O)ccn2)ccc1OC(F)(F)F [compound 11]
[1]; 10 nM
  inhibition at 0.01 µM: 13%
[1]; 100 nM
  inhibition at 0.1 µM: 0%
[1]; 1000 nM
  inhibition at 1 µM: -5%
[2]; 10 nM
  inhibition at 0.01 µM: -6%
[2]; 100 nM
  inhibition at 0.1 µM: -1%
[2]; 1000 nM
  inhibition at 1 µM: 15%
[3]; 10 nM
  inhibition at 0.01 µM: -1%
[3]; 100 nM
  inhibition at 0.1 µM: 16%
[3]; 1000 nM
  inhibition at 1 µM: 59%
[4]; CK2(h)
  inhibition at 0.01 µM: -3%
  inhibition at 0.1 µM: -1%
  inhibition at 1 µM: 0%
[4]; CK2α1(h)
  inhibition at 0.01 µM: -9%
  inhibition at 0.1 µM: -2%
  inhibition at 1 µM: 9%
[5]; 10 nM
  inhibition at 0.01 µM: -11%
[5]; 100 nM
  inhibition at 0.1 µM: -1%
[5]; 1000 nM
  inhibition at 1 µM: 33%
[6]; 10 nM
  inhibition at 0.01 µM: -10%
[6]; 100 nM
  inhibition at 0.1 µM: -2%
[6]; 1000 nM
  inhibition at 1 µM: -4%
[7]; 10 nM
  inhibition at 0.01 µM: -3%
[7]; 100 nM
  inhibition at 0.1 µM: -2%
[7]; 1000 nM
  inhibition at 1 µM: -2%
[8]; 10 nM
  inhibition at 0.01 µM: -9%
[8]; 100 nM
  inhibition at 0.1 µM: -5%
[8]; 1000 nM
  inhibition at 1 µM: 9%

— article PMC11233931, “Remodeling tumor‐associated macrophage for anti‐cancer effects by rational design of irreversible inhibition of mitogen‐activated protein kinase‐activated protein kinase 2” (MedComm, 2024)
